Here are results for 4 molecules from US20110200531A1, “TREATMENT AND DIAGNOSIS OF CENTRAL NERVOUS SYSTEM DISORDERS” (THE REGENTS OF THE UNIVERSITY OF CALIFORNIA, priority 2009, published 2011).

“Also recorded” adds a separate entry of the source.

One series deals with Tg2576 mice. Nature of the series: Aβ-related vaccinations in Tg2576 mice: retinal and brain pathology. It is filed as in vivo. The note with it: for Aβ deposits in hippocampal and neocortical areas of brain (6E10) / Aβ immunoreactivity in retinal microvessels / retinal amyloid angiopathy score: 10-month vaccination; for Aβ immunoreactivity in retinal microvessels / retinal amyloid angiopathy score: Aβ and vWF double-labeled microvessels, vs sham-immunized Tg2576. How it is done:
The Aβ oligomer antigen was prepared from Aβ1-40 based on our previously published work (Kayed et al., 2003). Briefly, lyophilized Aβ1-40 peptides were resuspended in 50% acetonitrile in water and relyophilized. Soluble prefibrillar oligomers were prepared by dissolving 1.0 mg of peptide in 400 μl of hexafluoroisopropanol for 10˜20 minutes at room temperature. The resultant seedless solution (100 μl) was added to 900 μl of MilliQ H2O in a siliconized Eppendorf tube. After 10˜20 minutes incubation at room temperature, the samples were centrifuged for 15 minutes at 14,000×g, and the supernatant fraction (pH 2.8˜3.5) was transferred to a new siliconized tube and subjected to a gentle stream of N2 for 5˜10 minutes to evaporate the hexafluoroisopropanol. […] Oligomers were validated by atomic force microscopy, electron microscopy, and size exclusion chromatography as described previously (Kayed et al., 2003). The Aβ fibril was prepared from Aβ1-42, because it is more fibrillogenic as compared with Aβ1-40. Aβ1-40, predominantly in fibrillary form, was previously studied in a randomized, double-blind, placebo-controlled phase 2a clinical trial, study AN1792(QS-21)-201 by Gilman and colleagues (Gilman et al., 2005). Fibrils were formed by dissolving the lyophilized Aβ1-42 in 50% hexafluoroisopropanol and stirred with closed caps for 7 days. Solution is stirred again for 2 days in capped tubes with 20-gauge needle holes on the top to allow the hexafluoroisopropanol to evaporate. This whole preparation was done in a fume food to accelerate evaporation and minimize falling of dust or other foreign material. Fibrils were precipitated by centrifugation for 15 minutes at 14,000 rpm and washed in PBS, and resuspended at 2 mg/ml. For the prefibrillar oligomer antigen, Aβ oligomer (AO) molecular mimic was prepared by conjugating Aβ1-40 via a C-terminal thioester to 5-nm colloidal gold as described previously (Kayed and Glabe, 2006). […] Immunization schemes were conducted in a similar way as described previously (Zhou et al., 2005). […] Administration of an equivalent volume of PBS with the adjuvant but without any peptide antigen to both wild-type and transgenic mice was used as control. All experimental procedures were performed under protocols approved by the University of California Irvine Institutional Animal Care and Use Committee. Tissue Preparation: Mice were deeply anesthetized with an overdose of Nembutal (100 mg/kg, i.p.) and perfused transcardially with ice-cold PBS. The eyes were directly collected and fixed overnight with 4% paraformaldehyde in PBS (pH 7.4, 4° C.) following brain removal. Fixed eyes were stored in PBS containing 20% sucrose and 0.05% sodium azide (NaN3) at 4° C. until use. Following removal of lenses with forceps fixed eyes were cryomolded with OCT. Cross-retinal cryostat sections (12 μm) were thaw-mounted onto “Superfrost plus” glass slides (Fisher, Tustin, Calif.), air-dried for 30 minutes and stored at 4° C. before staining. […] Immunohistochemistry and Quantification: […] The immunoreactivity of APP, hyperphosphorylated tau (AT8), and Aβ in selected sections was also detected using the avidin-biotin complex method, followed by staining with DAB and brief counterstaining with hematoxylin. […] The results were evaluated by either fluorescence or conventional microscopy with a Leica DM microscope. Images were recorded using a Spot II charge-coupled device camera with equal exposure times for all different groups of tissues. […]

A further series has as its system 5×FAD mouse retinas. Nature of the series: Retinal ganglion cell (RGC) quantification in 5×FAD mouse retinas. The series is classed as in vivo, mice. The settings on record: chow containing 300 mg/Kg from postnatal day 61 for 4 months. The method, then:
FIG. 24: Preservation of retinal ganglion cells (RGC) in 5×FAD mice by TMP (see Section 6.3.1). Numbers of RGC of wild-type, control (Vehicle) and TMP-treated mice were quantified.
5×FAD mice and wild type littermates (control) were fed with normal chow (Vehicle) or chow containing 300 mg/Kg of either TMP-N or TMP-S (see Section 6.3.1) from postnatal day 61 for exactly 4 months until the day of analysis. RGC cells were quantified in cross retinal sections as described in Liu et al., American Journal of Pathology, 2009.

A further series concerns 3×Tg-AD mice. Nature of the series: Learning and memory in 3×Tg AD mice (novel object recognition, Morris water maze). The series is classed as in vivo. The settings on record: 16-month old 3×Tg-AD females. How it is done: Both 16-month old 3×Tg-AD and background-matched wild type (WT) mice (females) were fed with TMPcontaining or nutrients matched control for 60 days as described in FIG. 3. (A) On day 61, all the mice were tested for object recognition as previously described. Briefly, mice (n=14 for each group) were habituated to a 60×30 cm container for 5 min. Two identical objects were placed in the bottom of the cage as mirror images of each other. The animal was trained for 5 min followed by a 5 min retention interval in the home cage. Then one of the objects in the test container was replaced with a novel object. During the 3-min probe trial, the mouse was placed in the cage and time spent investigating both objects was measured. A recognition index (R1) score is depicted as: (TimeN (in seconds for novel object)/TimeTotal (in seconds for both old and novel objects))×100. (B-D) Starting on day 62, all the mice were trained for 9 days on the Morris water maze (MWM) exactly as described for the behavior testing. […] (C) MWMprobe trial for number of platform location crosses, and (D) MWM probe trial for time spent in the target quadrant. As shown by the p values, (*) indicates significant improvement by TMP treatments with respect to the corresponding controls.
FIG. 21A-D: Improvement of learning and memory in aged 3×Tg AD mice by TMP treatment. Novel object recognition task was performed. A recognition index (R1) score is depicted as: [TimeN (in seconds for novel object)/TimeTotal (in seconds for both old and novel objects)]×100. B-D Starting on day 62, all the mice were trained for 9 days on the Morris water maze (MWM) for the behavior testing. […] (C) MWM probe trial for number of platform location crosses, and (D) MWM probe trial for time spent in the target quadrant. As shown by the p values, (*) indicates significant improvement by the compound treatments with respect to the corresponding controls.
TMP improves pathology in brains of 3×Tg-AD mice and results in increased memory and learning (See FIGS. 3, 4, and 10). In these mice, the earliest pathological hallmark is the accumulation of intraneuronal Aβ in the hippocampus, cortex and amygdala in 4 month old 3×Tg-AD homozygous mice. […] Between 4-6 months of age 3×Tg-AD homozygous mice develop diffuse amyloid plaques in the neocortex. At 6 months the retention deficits are associated with significant impairments in spatial learning of the Morris Water Maze task. […] Brain and retina pathology was evaluated by immunohistochemistry with specific antibodies and learning and memory performance were scored using the Novel Object Recognition Task and using Morris Water Maze trials.
The ability of TMP-N to improve learning and memory in 3×Tg AD mice was assessed using novel object recognition task. […]

Another series deals with mouse primary neurons. The series is described as follows: Survival of mouse primary neurons following exposure to hydrogen peroxide. It is filed as cell-based. The settings on record: 25-50 μM, hydrogen peroxide 10-100 μM.
Series [1] deals with SH-SY5Y human neuroblastoma cells. The series is described as follows: Survival of SH-SY5Y cells following exposure to hydrogen peroxide. It is filed as cell-based. The settings on record: for cell survival following exposure to hydrogen peroxide: SH-SY5Y, 25-50 μM, hydrogen peroxide 10-100 μM; for oxidative stress measured by production of malondialdehyde (MDA) and hydrogen peroxide: cultured cells (cell type not specified); for difference in protective efficacy between the two differently-sourced TMP compounds: statistical analysis, TMP-N vs TMP-S.

The test system of a further series is 5×FAD mouse brains. Nature of the series: Abeta immunoreactivity (6E10) in 5×FAD mouse brains. The series is classed as in vivo, mice. The note with it: chow containing 300 mg/Kg from postnatal day 61 for 4 months.
A further series concerns 5×FAD mice. Nature of the series: Novel object recognition task in 5×FAD mice. The series is classed as in vivo. The settings on record: chow containing 300 mg/Kg from postnatal day 61 for 4 months; N=8-12. The method, then: FIG. 22: Improvement of memory in 5×FAD mice by synthetic form of TMP treatments. Novel object recognition task was performed and depicted as FIG. 21.
Wild type littermates were used for comparison. All the mice were fed with normal chow (Vehicle) or containing 300 mg/Kg either TMP-N or TMP-S from postnatal day 61 for exactly 4 months until the day for the completion of behavioral assessments.

Text for 5×FAD mouse brains: Animal tissues were perfused with 1×PBS followed by overnight fixation in 4% paraformaldehyde in cold room. Vibrotome sections (˜50 μm thick) were immunostained with 6E10 antibody, which recognizes all forms of Abeta, and visualized by fluorescence microscopy.

As for “AO: Aβ oligomer molecular mimic prepared by conjugating Aβ1-40 via a C-terminal thioester to 5-nm colloidal gold; vaccine immunogen”, the “number of Aβ plaques / Aβ deposits in retina” value in the series with Tg2576 mice (100 μg s.c. with incomplete Freund's adjuvant once a month for 10 months, vs PBS adjuvant) is recorded as “significant reduction in the number of Aβ plaques”. Moreover, in the series on Tg2576 mice, the “Aβ deposits in hippocampal and neocortical areas of brain (6E10)” value was “notably less Aβ deposits”; the “Aβ immunoreactivity in retinal microvessels / retinal amyloid angiopathy score” value is “even greater Aβ immunoreactivity”.
With `Cc1nc(C)c(C)nc1C` [TMP-N, tetramethylpyrazine], in the series with 5×FAD mouse retinas, the “number of retinal ganglion cells (RGC)” value is “slightly preserved RGC; also recorded: slight protective effect on RGC”. Also, in the series with 3×Tg-AD mice (TMP diet 60 days, trained 9 days from day 62), the “Morris water maze (MWM) acquisition performance” value is reported as “significantly improved the performance of 3×Tg-AD mice”. For the same molecule, the “learning and memory (object recognition, MWM probe trials)” value in the series with 3×Tg-AD mice (TMP-containing diet) is “significantly restored learning and memory”. Moreover, the “cell survival following exposure to hydrogen peroxide” value (“cell survival following exposure” below) with mouse primary neurons is “significantly increased cell survival”. Further, in series [1], the “cell survival following exposure” value is on record as “significantly increased cell survival”; the “oxidative stress measured by production of malondialdehyde (MDA) and hydrogen peroxide” value was “remarkable reduction of oxidative stress”; the “difference in protective efficacy between the two differently-sourced TMP compounds” value is reported as “no significant difference”. Moreover, in the series with 5×FAD mouse brains, the “Abeta immunoreactivity / deposits in brain (6E10)” value is “Abeta deposits were decreased in both cortical and hippocampal regions”. Further, in the series with 5×FAD mice, the “memory performance, novel object recognition task” value is given as “some negative effects; also recorded: slight negative effect on the memory performance”.
With `Cc1nc(C)c(C)nc1C` [TMP-S, tetramethylpyrazine], the “number of retinal ganglion cells (RGC)” value in the series on 5×FAD mouse retinas was “significantly preserved RGC; also recorded: significantly increased number of RGC”. For the same molecule, the “cell survival following exposure” value in the series on mouse primary neurons is given as “significantly increased cell survival”. In series [1], the “cell survival following exposure” value is “significantly increased cell survival”; the “oxidative stress measured by production of malondialdehyde (MDA) and hydrogen peroxide” value is “remarkable reduction of oxidative stress”; the “difference in protective efficacy between the two differently-sourced TMP compounds” value is “no significant difference”. The “memory performance, novel object recognition task” value in the series with 5×FAD mice was “significantly improved memory performance; also recorded: significantly improved this performance”.
For the molecule “AF: Aβ fibril prepared from Aβ1-42; vaccine immunogen”, in the series with Tg2576 mice, the “Aβ deposits in hippocampal and neocortical areas of brain (6E10)” value is “notably less Aβ deposits”; the “Aβ immunoreactivity in retinal microvessels / retinal amyloid angiopathy score” value is reported as “even greater Aβ immunoreactivity”.
